Measured values from ChEMBL document CHEMBL1136619, “Synthesis of a new family of glycolipidic nitrones as potential antioxidant drugs for neurodegenerative disorders” (Bioorg Med Chem Lett, 2003).

System: neuronal
Experiment: Cytotoxic activity in cultured neuronal cells determined using MTT viability assay
Type: functional, cell-based

`CCCCCCCCCCCCSCC(C)(C)/[N+]([O-])=C/c1ccc(CNC(=O)[C@H](O)[C@@H](O)[C@H](O[C@@H]2O[C@@H](CO)[C@H](O)[C@H](O)[C@@H]2O)[C@H](O)CO)cc1` showed a Concentration of 400 µM.
